Laboratory results reported in patent US11697650B2, “Compounds having tetrahydroindolizine-1-carboxamide as BCL-2 inhibitors” (Eil Therapeutics, Inc., priority 2021, dated 2023).

What was measured:
[1] = biological target: BCL-2 (Homo sapiens (Human), UniProt P10415); test: BCL-2 TR-FRET Assay (primary PPI inhibition); type: binding; settings: 60 min incubation; read-out: BCL2 (IC50 code, BCL-2 TR-FRET)
Procedure: BCL-2 TR-FRET Assay (BPS Bioscience, #50222)
(§1) The following assay concentrations and times were used: 3 ng BCL-2, 5 μl of 1:100 anti-His Tb-labeled donor, 5 μl of 1:100 Dye-labeled acceptor, 5 μl of 1:40 BCL-2 Peptide Ligand, and 2 ul of test compound, with 60 min incubation time. The results of the assay were read using a Clariostar (BMG Labtech) plate reader with the following parameters: TR FRET, 340ex/620 and 665em; 60 μsec Delay; and 500 μsec integration.

[2] = biological target: BCL-XL (Homo sapiens (Human), UniProt Q07817); test: BCL-XL TR-FRET Assay (primary PPI inhibition); type: binding; settings: 60 min incubation; read-out: BCLxL (IC50 code, BCL-XL TR-FRET)
Sequence of BCL-XL (Q07817 whole entry): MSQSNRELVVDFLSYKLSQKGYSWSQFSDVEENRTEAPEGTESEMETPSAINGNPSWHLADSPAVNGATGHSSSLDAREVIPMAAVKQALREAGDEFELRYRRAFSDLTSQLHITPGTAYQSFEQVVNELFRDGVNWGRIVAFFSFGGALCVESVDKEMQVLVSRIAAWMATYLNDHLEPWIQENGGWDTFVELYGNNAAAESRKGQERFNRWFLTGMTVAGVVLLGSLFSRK
Procedure: BCL-XL TR-FRET Assay (BPS Bioscience, #50223)
as §1, with “used: 10.5” for “used: 3”, “ng BCL-XL,” for “ng BCL-2,”, “of 1:80 BCL-XL” for “of 1:40 BCL-2”, “2 μl” for “2 ul”

[3] = test system: RS4-11 cells; test: Cell viability assay (CellTiter-Glo), RS4-11; type: cell-based; settings: Homo sapiens, 72 h, 3 days, read-out: RS4-11 (CC50 code)
Procedure: (§2) Culture medium for HEK293—DMEM (PanEco, Cat #C420) was used. RPMI-1640 (PanEco, Cat #C363) was used for the rest of the cell lines.
(§3) Compounds were prepared as 200× stocks with serial dilution in 100% DMSO with a final concentration of 1×.
(§4) […] were dispersed in 40 μL aliquots in 384-well plates at a concentration of 2000 cells per well for HEK293 and at a concentration of 4000 cells per well for the rest of the cell lines using a robotic station Biomek (Beckman). Before adding compounds, the cells were incubated at 37° C. (HEK293 were incubated for a day before adding compounds).
(§5) A dilution plate was prepared by pouring 78 μL of the appropriate culture medium using a robotic station Biomek (Beckman). Sequentially, using a robotic station, 2 μL of substances were taken and added to 78 μL of culture medium (dilution of compounds 40×). 10 μL aliquots were taken and added to the plates of the cells (dilution of compounds 5×). The plates were incubated for 3 days at a temperature 37° C. After 3 days, 10 μL of CellTiter-Glo (Promega) was added to the cells and the luminescence was measured.

[4] = test system: MOLT-4 cells; test: Cell viability assay (CellTiter-Glo), MOLT-4; type: cell-based; settings: Homo sapiens, 72 h, 3 days, read-out: MOLT-4 (CC50 code)
Procedure: as §2, §3, §4, §5

[5] = Cell viability assay (CellTiter-Glo), HEK293; type: cell-based; settings: human, HEK293 cells, read-out: HEK293 (CC50 code)
Procedure: as §2, §3, §4, §5

[6] = test system: caspase-3 and -7 activities in RS4-11 cells; test: Caspase-3/7 activation (Caspase-Glo 3/7) in RS4-11 cells; type: cell-based; settings: Homo sapiens, 3.5 h incubation, read-out: Cas-3/7 (EC50 code)
Procedure: The Caspase-Glo 3/7 Assay is homogeneous, luminescent assay that measures caspase-3 and -7 activities. The assay provides a luminogenic caspase-3/7 substrate, which contains the tetrapeptide sequence DEVD, in a reagent optimized for caspase activity.
Incubate RS4-11 cells with varying concentrations of test compounds for 3.5 h in a humidified incubator at 37° C. and 5% CO2 and 30 min at r.t. Add 15 μl Caspase-Glo reagent to each well and incubate the plate for 30 min at r.t. Read on ClarioStar Plus instrument.
Promega Caspase-Glo (Promega, #8212); Frozen RS4-11 cells; 384-well white plate (Corning, #3570).
ClarioStar Plus; Biomek FX for liquid handling (Beckman Coulter).

Sequence of BCL-2 (P10415 whole entry): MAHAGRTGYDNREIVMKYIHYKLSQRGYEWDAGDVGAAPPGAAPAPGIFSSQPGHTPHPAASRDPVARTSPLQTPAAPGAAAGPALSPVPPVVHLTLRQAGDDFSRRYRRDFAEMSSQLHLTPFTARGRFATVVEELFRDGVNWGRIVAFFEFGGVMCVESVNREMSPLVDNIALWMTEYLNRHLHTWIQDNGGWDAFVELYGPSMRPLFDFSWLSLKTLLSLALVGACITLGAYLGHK

SMILES | IC50 [1] [nM] | IC50 [2] [nM] | CC50 [3] [nM] | CC50 [4] [nM] | CC50 at 3 days [5] [nM] | EC50 [6] [nM]
N#Cc1ccccc1CN(C(=O)c1cc(-c2cc3c(cc2C(=O)N2Cc4ccccc4C[C@H]2CN2CCOCC2)OCO3)n2c1CCCC2)c1ccc(O)cc1 [Compound 47, N-[(2-Cyanophenyl)methyl]-N-(4-hydroxyphenyl)-3-[6-[(3S)-3-(morpholinomethyl)-3,4-dihydro-1H-isoquinoline-2-carbonyl]-1,3-benzodioxol-5-yl]-5,6,7,8-tetrahydroindolizine-1-carboxamide] | > 50 |  |  |  |  | 
CS(=O)(=O)NC(=O)c1cccc(CN(C(=O)c2cc(-c3cc4c(cc3C(=O)N3Cc5ccccc5C[C@H]3CN3CCOCC3)OCO4)n3c2CCCC3)c2ccc(O)cc2)c1 [Compound 43, N-(4-hydroxyphenyl)-N-{3-[(methylsulfonyl)carbamoyl]benzyl}-3-(6-{[(3S)-3-(morpholin-4-ylmethyl)-3,4-dihydroisoquinolin-2(1H)-yl]carbonyl}-1,3-benzodioxol-5-yl)-5,6,7,8-tetrahydroindolizine-1-carboxamide] | 5 to 10 | 2000 to 4000 |  |  |  | 
Cc1cc(C(F)(F)F)ccc1CN(C(=O)c1cc(-c2cc3c(cc2C(=O)N2Cc4ccccc4C[C@H]2CN2CCOCC2)OCO3)n2c1CCCC2)c1ccc(O)cc1 [Compound 37, N-(4-hydroxyphenyl)-N-[2-methyl-4-(trifluoromethyl)benzyl]-3-(6-{[(3S)-3-(morpholin-4-ylmethyl)-3,4-dihydroisoquinolin-2(1H)-yl]carbonyl}-1,3-benzodioxol-5-yl)-5,6,7,8-tetrahydroindolizine-1-carboxamide] | 5 to 10 |  | ≤ 100 | 2000 to 10000 | > 25000 | 100 to 250
CC(C)(C)OC(=O)c1cccc(CN(C(=O)c2cc(-c3cc4c(cc3C(=O)N3Cc5ccccc5C[C@H]3CN3CCOCC3)OCO4)n3c2CCCC3)c2ccc(O)cc2)c1 [Compound 46, tert-Butyl 3-[(4-hydroxy-N-[3-[6-[(3S)-3-(morpholinomethyl)-3,4-dihydro-1H-isoquinoline-2-carbonyl]-1,3-benzodioxol-5-yl]-5,6,7,8-tetrahydroindolizine-1-carbonyl]anilino)methyl]benzoate] | 10 to 50 |  |  |  |  | 
Cc1ccc(C(F)(F)F)cc1CN(C(=O)c1cc(-c2cc3c(cc2C(=O)N2Cc4ccccc4C[C@H]2CN2CCOCC2)OCO3)n2c1CCCC2)c1ccc(O)cc1 [Compound 38, N-(4-hydroxyphenyl)-N-[2-methyl-5-(trifluoromethyl)benzyl]-3-(6-{[(3S)-3-(morpholin-4-ylmethyl)-3,4-dihydroisoquinolin-2(1H)-yl]carbonyl}-1,3-benzodioxol-5-yl)-5,6,7,8-tetrahydroindolizine-1-carboxamide] | 10 to 50 |  |  |  |  | 
O=C(c1cc(-c2cc3c(cc2C(=O)N2Cc4ccccc4C[C@H]2CN2CCOCC2)OCO3)n2c1CCCC2)N(Cc1cccc([N+](=O)[O-])c1)c1ccc(O)cc1 [Compound 49, N-(4-Hydroxyphenyl)-3-[6-[(3S)-3-(morpholinomethyl)-3,4-dihydro-1H-isoquinoline-2-carbonyl]-1,3-benzodioxol-5-yl]-N-[(3-nitrophenyl)methyl]-5,6,7,8-tetrahydroindolizine-1-carboxamide] | > 50 | > 4000 | > 200 | > 10000 | > 25000 | 
Cc1cccc(F)c1CN(C(=O)c1cc(-c2cc3c(cc2C(=O)N2Cc4ccccc4C[C@H]2CN2CCOCC2)OCO3)n2c1CCCC2)c1ccc(O)cc1 [Compound 32, N-(2-fluoro-6-methylbenzyl)-N-(4-hydroxyphenyl)-3-(6-{[(3S)-3-(morpholin-4-ylmethyl)-3,4-dihydroisoquinolin-2(1H)-yl]carbonyl}-1,3-benzodioxol-5-yl)-5,6,7,8-tetrahydroindolizine-1-carboxamide] | 10 to 50 |  |  |  |  | 
Cc1cccc(C)c1CN(C(=O)c1cc(-c2cc3c(cc2C(=O)N2Cc4ccccc4C[C@H]2CN2CCOCC2)OCO3)n2c1CCCC2)c1ccc(O)cc1 [Compound 30, N-(2,6-dimethylbenzyl)-N-(4-hydroxyphenyl)-3-(6-{[(3S)-3-(morpholin-4-ylmethyl)-3,4-dihydroisoquinolin-2(1H)-yl]carbonyl}-1,3-benzodioxol-5-yl)-5,6,7,8-tetrahydroindolizine-1-carboxamide] | > 50 |  |  |  |  | 
O=C(c1cc(-c2cc3c(cc2C(=O)N2Cc4ccccc4C[C@H]2CN2CCOCC2)OCO3)n2c1CCCC2)N(Cc1c(F)cccc1C(F)(F)F)c1ccc(O)cc1 [Compound 22, N-[2-fluoro-6-(trifluoromethyl)benzyl]-N-(4-hydroxyphenyl)-3-(6-{[(3S)-3-(morpholin-4-ylmethyl)-3,4-dihydroisoquinolin-2(1H)-yl]carbonyl}-1,3-benzodioxol-5-yl)-5,6,7,8-tetrahydroindolizine-1-carboxamide] | > 50 | > 4000 |  |  |  | 
O=C(O)c1cccc(CN(C(=O)c2cc(-c3cc4c(cc3C(=O)N3Cc5ccccc5C[C@H]3CN3CCOCC3)OCO4)n3c2CCCC3)c2ccc(O)cc2)c1 [Compound 45, 3-[(4-Hydroxy-N-[3-[6-[(3S)-3-(morpholinomethyl)-3,4-dihydro-1H-isoquinoline-2-carbonyl]-1,3-benzodioxol-5-yl]-5,6,7,8-tetrahydroindolizine-1-carbonyl]anilino)methyl]benzoic Acid] | 10 to 50 | 2000 to 4000 | > 200 | > 10000 | > 25000 | 
O=C(c1cc(-c2cc3c(cc2C(=O)N2Cc4ccccc4C[C@H]2CN2CCOCC2)OCO3)n2c1CCCC2)N(Cc1ccc(OC(F)(F)F)cc1)c1ccc(O)cc1 [Compound 26, N-(4-hydroxyphenyl)-3-(6-{[(3S)-3-(morpholin-4-ylmethyl)-3,4-dihydroisoquinolin-2(1H)-yl]carbonyl}-1,3-benzodioxol-5-yl)-N-[4-(trifluoromethoxy)benzyl]-5,6,7,8-tetrahydroindolizine-1-carboxamide] | > 50 | > 4000 |  |  |  | 
CCOc1ccc(-c2nc(CN(C(=O)c3cc(-c4cc5c(cc4C(=O)N4Cc6ccccc6C[C@H]4CN4CCOCC4)OCO5)n4c3CCCC4)c3ccc(O)cc3)c(C)o2)cc1 [Compound 27, N-{[2-(4-ethoxyphenyl)-5-methyl-1,3-oxazol-4-yl]methyl}-N-(4-hydroxyphenyl)-3-(6-{[(3S)-3-(morpholin-4-ylmethyl)-3,4-dihydroisoquinolin-2(1H)-yl]carbonyl}-1,3-benzodioxol-5-yl)-5,6,7,8-tetrahydroindolizine-1-carboxamide] | > 50 | > 4000 |  |  |  | 
O=C(c1cc(-c2cc3c(cc2C(=O)N2Cc4ccccc4C[C@H]2CN2CCOCC2)OCO3)n2c1CCCC2)N(Cc1cccnc1)c1ccc(O)cc1 [Compound 39, N-(4-hydroxyphenyl)-3-(6-{[(3S)-3-(morpholin-4-ylmethyl)-3,4-dihydroisoquinolin-2(1H)-yl]carbonyl}-1,3-benzodioxol-5-yl)-N-(pyridin-3-ylmethyl)-5,6,7,8-tetrahydroindolizine-1-carboxamide] | 5 to 10 | 2000 to 4000 | > 200 | ≤ 2000 | 10000 to 25000 | 
O=C(c1cc(-c2cc3c(cc2C(=O)N2Cc4ccccc4C[C@H]2CN2CCOCC2)OCO3)n2c1CCCC2)N(Cc1ccccc1F)c1ccc(O)cc1 [Compound 11, N-(2-fluorobenzyl)-N-(4-hydroxyphenyl)-3-(6-{[(3S)-3-(morpholin-4-ylmethyl)-3,4-dihydroisoquinolin-2(1H)-yl]carbonyl}-1,3-benzodioxol-5-yl)-5,6,7,8-tetrahydroindolizine-1-carboxamide] |  |  | ≤ 100 | > 10000 | 10000 to 25000 | ≤ 100
